US12708649B2, “Compositions and methods for improving skin health and for the treatment and prevention of diseases, disorders and conditions associated with fungi and other pathogenic microbes” (priority 2020, dated 2026)
≈ marks a conversion by molar mass, not a printed value. Read-outs that look alike come from different tables or passages of the source.

Tests used:
DB02473 = assay: Antibiotic MIC tests; format: cell-based
E. coli ATCC 25922 = settings: MIC; cited from earlier work
DB05646 = assay: Antibiotic MIC tests; format: cell-based, Alcaligenes faecalis; settings: for MIC: Alcaligenes faecalis
DB10033 = assay: Antibiotic MIC tests; format: cell-based, Bacillus altitudinis; settings: for MIC: Bacillus altitudinis
DB00376 = assay: Antibiotic MIC tests; format: cell-based
[1] = 24 h; read-out: MIC, DB02473 24 hr
[2] = 48 h; read-out: MIC, DB02473 48 hr
[3] = 24 h, read-out: MIC, DB05646 24 hr
[4] = 48 h, read-out: MIC, DB05646 48 hr
[5] = 24 h, read-out: MIC, DB10033 24 hr
[6] = 48 h, read-out: MIC, DB10033 48 hr
[7] = 24 h, read-out: MIC, DB00376 24 hr
[8] = 48 h, read-out: MIC, DB00376 48 hr

Row | Compound | MIC (DB02473; [1]) [µg/mL] | MIC (DB02473; [2]) [µg/mL] | E. coli ATCC 25922 CLSI QC Range (E. coli ATCC 25922) | MIC (DB05646; [3]) [µg/mL] | MIC (DB05646; [4]) [µg/mL] | MIC (DB10033; [5]) [µg/mL] | MIC (DB10033; [6]) [µg/mL] | MIC (DB00376; [7]) [µg/mL] | MIC (DB00376; [8]) [µg/mL] | MIC (DB02473; 24 h, read-out: MIC, DB02473 24 hr) [µg/mL] | MIC (DB02473; 48 h, read-out: MIC, DB02473 48 hr) [µg/mL] | MIC, DB02473 24 hr (DB02473; 24 hr) [µg/mL] | MIC, DB02473 48 hr (DB02473; 48 hr) [µg/mL] | MIC, DB05646 24 hr (DB05646) [µg/mL] | MIC, DB05646 48 hr (DB05646) [µg/mL] | MIC, DB10033 24 hr (DB10033) [µg/mL] | MIC, DB10033 48 hr (DB10033) [µg/mL] | MIC, DB00376 24 hr (DB00376) [µg/mL] | MIC, DB00376 48 hr (DB00376) [µg/mL]
1 | NCC[C@H](O)C(=O)N[C@@H]1C[C@H](N)[C@@H](O[C@H]2O[C@H](CN)[C@@H](O)[C@H](O)[C@H]2O)[C@H](O)[C@H]1O[C@H]1O[C@H](CO)[C@@H](O)[C@H](N)[C@H]1O [Amikacin] | 0.25 (≈ 0.427 µM) | 0.25 (≈ 0.427 µM) | 0.5-4^ μg/mL | 4 (≈ 6.83 µM) | 4 (≈ 6.83 µM) | 0.5 (≈ 0.854 µM) | 2 (≈ 3.42 µM) | 0.5 (≈ 0.854 µM) | 1 (≈ 1.71 µM) | – | – | – | – | – | – | – | – | – | –
2 | CC[C@H]1OC(=O)[C@H](C)[C@@H](O[C@H]2C[C@@](C)(OC)[C@@H](O)[C@H](C)O2)[C@H](C)[C@@H](O[C@@H]2O[C@H](C)C[C@H](N(C)C)[C@H]2O)[C@](C)(O)C[C@@H](C)CN(C)[C@H](C)[C@@H](O)[C@]1(C)O [Azithromycin] | 0.5 (≈ 0.668 µM) | – | – | 2 (≈ 2.67 µM) | 2 (≈ 2.67 µM) | 0.2 (≈ 0.267 µM) | 0.2 (≈ 0.267 µM) | 0.25 (≈ 0.334 µM) | 1 (≈ 1.34 µM) | – | – | – | – | – | – | – | – | – | –
3 | C[C@H]1[C@H](NC(=O)/C(=N\OC(C)(C)C(=O)O)c2csc(N)n2)C(=O)N1S(=O)(=O)O [Aztreonam] | > 64 | > 64 | 0.06 to 0.25 µg/mL | 32 (≈ 73.5 µM) | 32 (≈ 73.5 µM) | > 64 | > 64 | 16 (≈ 36.7 µM) | > 64 | – | – | – | – | – | – | – | – | – | –
4 | CO/N=C(\C(=O)N[C@@H]1C(=O)N2C(C(=O)[O-])=C(C[N+]3(C)CCCC3)CS[C@H]12)c1csc(N)n1 [Cefepime] | 2 (≈ 4.16 µM) | 4 (≈ 8.32 µM) | 0.016 to 0.12 µg/mL | 4 (≈ 8.32 µM) | 8 (≈ 16.6 µM) | 64 (≈ 133 µM) | 64 (≈ 133 µM) | 1 (≈ 2.08 µM) | 64 (≈ 133 µM) | – | – | – | – | – | – | – | – | – | –
5 | CO/N=C(\C(=O)N[C@@H]1C(=O)N2C(C(=O)O)=C(CSc3nc(=O)c(=O)[nH]n3C)CS[C@H]12)c1csc(N)n1 [Ceftriaxone] | 4 (≈ 7.21 µM) | 16 (≈ 28.9 µM) | 0.03 to 0.12 µg/mL | 0.25 (≈ 0.451 µM) | 0.25 (≈ 0.451 µM) | 16 (≈ 28.9 µM) | 16 (≈ 28.9 µM) | 2 (≈ 3.61 µM) | 4 (≈ 7.21 µM) | – | – | – | – | – | – | – | – | – | –
6 | O=C(N[C@H](CO)[C@H](O)c1ccc([N+](=O)[O-])cc1)C(Cl)Cl [Chloramphenicol] | – | – | – | 8 (≈ 24.8 µM) | 16 (≈ 49.5 µM) | 2 (≈ 6.19 µM) | 4 (≈ 12.4 µM) | 2 (≈ 6.19 µM) | 8 (≈ 24.8 µM) | 4 (≈ 12.4 µM) | 16 (≈ 49.5 µM) | – | – | – | – | – | – | – | –
7 | [H]/N=C(\N/C(=N/[H])NCCCCCCNC(=N)NC(=N)Nc1ccc(Cl)cc1)Nc1ccc(Cl)cc1 [Chlorhexidine] | 1 (≈ 1.98 µM) | – | – | 32 (≈ 63.3 µM) | 32 (≈ 63.3 µM) | 1 (≈ 1.98 µM) | 2 (≈ 3.96 µM) | 0.5 (≈ 0.989 µM) | 1 (≈ 1.98 µM) | – | – | – | – | – | – | – | – | – | –
8 | O=C(O)c1cn(C2CC2)c2cc(N3CCNCC3)c(F)cc2c1=O [Ciprofloxacin] | ≤ 0.06 | 0.125 (≈ 0.377 µM) | – | 2 (≈ 6.04 µM) | 2 (≈ 6.04 µM) | 0.125 (≈ 0.377 µM) | 1 (≈ 3.02 µM) | 0.0625 (≈ 0.189 µM) | 0.5 (≈ 1.51 µM) | – | – | – | – | – | – | – | – | – | –
9 | CCC[C@@H]1C[C@@H](C(=O)N[C@@H]([C@H]2O[C@H](SC)[C@H](O)[C@@H](O)[C@H]2O)[C@H](C)Cl)N(C)C1 [Clindamycin] | 0.5 (≈ 1.18 µM) | 2 (≈ 4.71 µM) | – | > 64 | > 64 | 0.125 (≈ 0.294 µM) | 2 (≈ 4.71 µM) | 1 (≈ 2.35 µM) | 4 (≈ 9.41 µM) | – | – | – | – | – | – | – | – | – | –
10 | CC[C@H]1OC(=O)[C@H](C)[C@@H](O[C@H]2C[C@@](C)(OC)[C@@H](O)[C@H](C)O2)[C@H](C)[C@@H](O[C@@H]2O[C@H](C)C[C@H](N(C)C)[C@H]2O)[C@](C)(O)C[C@@H](C)C(=O)[C@H](C)[C@@H](O)[C@]1(C)O [Erythromycin] | – | 0.125 (≈ 0.17 µM) | – | 16 (≈ 21.8 µM) | 64 (≈ 87.2 µM) | ≤ 0.06 | ≤ 0.06 | 0.125 (≈ 0.17 µM) | 0.5 (≈ 0.681 µM) | – | – | – | – | – | – | – | – | – | –
11 | C[C@H]1COc2c(N3CCN(C)CC3)c(F)cc3c(=O)c(C(=O)O)cn1c23 [Levofloxacin] | ≤ 0.06 | – | – | 1 (≈ 2.77 µM) | 1 (≈ 2.77 µM) | ≤ 0.06 | 0.125 (≈ 0.346 µM) | ≤ 0.06 | 0.125 (≈ 0.346 µM) | – | – | – | – | – | – | – | – | – | –
12 | C[C@@H](O)[C@H]1C(=O)N2C(C(=O)O)=C(S[C@@H]3CN[C@H](C(=O)N(C)C)C3)[C@H](C)[C@H]12 [Meropenem] | ≤ 0.06 | ≤ 0.06 | 0.008 to 0.06 µg/mL | ≤ 0.06 | ≤ 0.06 | ≤ 0.06 | 0.125 (≈ 0.326 µM) | ≤ 0.06 | ≤ 0.06 | – | – | – | – | – | – | – | – | – | –
13 | CN(C)c1ccc(O)c2c1C[C@H]1C[C@H]3[C@H](N(C)C)C(O)=C(C(N)=O)C(=O)[C@@]3(O)C(O)=C1C2=O [Minocycline] | 0.125 (≈ 0.273 µM) | 0.5 (≈ 1.09 µM) | – | 2 (≈ 4.37 µM) | 4 (≈ 8.74 µM) | 2 (≈ 4.37 µM) | 2 (≈ 4.37 µM) | 0.0625 (≈ 0.137 µM) | 0.25 (≈ 0.546 µM) | – | – | – | – | – | – | – | – | – | –
14 | C/C(=C\C(=O)OCCCCCCCCC(=O)O)C[C@@H]1OC[C@H](C[C@@H]2O[C@H]2[C@@H](C)[C@H](C)O)[C@@H](O)[C@H]1O [Mupirocin] | ≤ 1 | ≤ 1 | – | 64 (≈ 128 µM) | 128 (≈ 256 µM) | 8 (≈ 16 µM) | 64 (≈ 128 µM) | 2 (≈ 3.99 µM) | 16 (≈ 32 µM) | – | – | – | – | – | – | – | – | – | –
15 | CN(C)[C@@H]1C(O)=C(C(N)=O)C(=O)[C@@]2(O)C(O)=C3C(=O)c4c(O)cccc4[C@@](C)(O)[C@H]3C[C@@H]12 [Tetracycline] | – | – | – | 4 (≈ 9 µM) | 16 (≈ 36 µM) | – | – | 0.0625 (≈ 0.141 µM) | – | – | – | – | – | – | – | – | – | – | –
16 | Amoxicillin/Clavulanate (4:1) | – | – | – | – | – | – | – | – | – | – | – | ≤0.06 | ≤0.06 | 32 | 32 | ≤0.06 | ≤0.06 | ≤0.06 | ≤0.06
17 | Neomycin | – | – | – | – | – | – | – | – | – | – | – | ≤0.06 | 0.25 | 8 | 16 | 0.125 | 0.125 | 0.125 | 0.25
18 | Polymyxin B | – | – | 0.25 to 2 µg/mL | – | – | – | – | – | – | – | – | 4 | 8 | 1 | 1 | 8 | 16 | 8 | 16
19 | Povidone-iodine | – | – | – | – | – | – | – | – | – | – | – | >1024 | >1024 | >1024 | >1024 | >1024 | >1024 | >1024 | >1024
